# Test results as given in ChEMBL document CHEMBL4673296 (J Med Chem, 2020).
# Calls of active or inactive are those of the source. The calls are words filed in the database; no cut-off is given here.
# Legend:
# Mus musculus [1] = assay: Decrease in total ATG13 level in liver lysate of C57BL/6J mouse at 10 mg/kg, po measured after 2 hrs by Western blot analysis; format: functional, organism-based
# [2] = molecular target: T1, Serine/threonine-protein kinase ULK1 (Homo sapiens, UniProt O75385); assay: Inhibition of recombinant human ULK1 (1-649) expressed in Sf9 cells using myelin basic protein as substrate by ADP-glo assay; conditions: sf9
# T1 sequence (O75385 whole entry): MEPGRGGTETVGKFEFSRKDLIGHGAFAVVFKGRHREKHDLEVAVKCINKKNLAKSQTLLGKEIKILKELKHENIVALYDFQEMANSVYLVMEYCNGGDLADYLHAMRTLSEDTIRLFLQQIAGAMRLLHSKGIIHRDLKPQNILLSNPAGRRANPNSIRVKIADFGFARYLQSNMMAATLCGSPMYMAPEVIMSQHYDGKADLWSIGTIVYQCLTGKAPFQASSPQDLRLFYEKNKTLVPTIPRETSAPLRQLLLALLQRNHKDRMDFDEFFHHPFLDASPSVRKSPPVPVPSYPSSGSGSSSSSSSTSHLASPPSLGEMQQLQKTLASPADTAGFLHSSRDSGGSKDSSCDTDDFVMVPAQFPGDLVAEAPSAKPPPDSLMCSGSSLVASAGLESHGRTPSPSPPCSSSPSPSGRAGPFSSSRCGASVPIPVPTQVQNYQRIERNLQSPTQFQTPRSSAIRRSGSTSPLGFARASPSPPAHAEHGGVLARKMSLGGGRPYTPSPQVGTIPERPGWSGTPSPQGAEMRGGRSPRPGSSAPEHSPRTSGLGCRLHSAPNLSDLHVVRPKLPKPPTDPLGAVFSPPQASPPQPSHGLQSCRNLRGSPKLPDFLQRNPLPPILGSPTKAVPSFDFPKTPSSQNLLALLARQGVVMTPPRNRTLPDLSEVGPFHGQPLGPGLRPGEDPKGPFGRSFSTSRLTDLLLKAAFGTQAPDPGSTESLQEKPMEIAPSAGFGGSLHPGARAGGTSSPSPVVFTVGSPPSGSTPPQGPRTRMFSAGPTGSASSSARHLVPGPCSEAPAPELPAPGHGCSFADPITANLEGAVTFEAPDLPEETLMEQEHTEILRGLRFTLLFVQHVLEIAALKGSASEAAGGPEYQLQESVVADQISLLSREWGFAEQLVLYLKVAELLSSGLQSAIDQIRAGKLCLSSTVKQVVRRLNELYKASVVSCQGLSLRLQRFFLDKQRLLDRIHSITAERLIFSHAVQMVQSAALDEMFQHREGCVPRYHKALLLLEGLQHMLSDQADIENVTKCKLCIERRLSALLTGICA
# [3] = molecular target: T2, Serine/threonine-protein kinase ULK2 (Homo sapiens, UniProt Q8IYT8); assay: Inhibition of ULK2 (unknown origin) expressed in HEK293T cells incubated for 2 hrs by NanoBRET assay; format: cell-based
# T2 sequence (Q8IYT8 whole entry): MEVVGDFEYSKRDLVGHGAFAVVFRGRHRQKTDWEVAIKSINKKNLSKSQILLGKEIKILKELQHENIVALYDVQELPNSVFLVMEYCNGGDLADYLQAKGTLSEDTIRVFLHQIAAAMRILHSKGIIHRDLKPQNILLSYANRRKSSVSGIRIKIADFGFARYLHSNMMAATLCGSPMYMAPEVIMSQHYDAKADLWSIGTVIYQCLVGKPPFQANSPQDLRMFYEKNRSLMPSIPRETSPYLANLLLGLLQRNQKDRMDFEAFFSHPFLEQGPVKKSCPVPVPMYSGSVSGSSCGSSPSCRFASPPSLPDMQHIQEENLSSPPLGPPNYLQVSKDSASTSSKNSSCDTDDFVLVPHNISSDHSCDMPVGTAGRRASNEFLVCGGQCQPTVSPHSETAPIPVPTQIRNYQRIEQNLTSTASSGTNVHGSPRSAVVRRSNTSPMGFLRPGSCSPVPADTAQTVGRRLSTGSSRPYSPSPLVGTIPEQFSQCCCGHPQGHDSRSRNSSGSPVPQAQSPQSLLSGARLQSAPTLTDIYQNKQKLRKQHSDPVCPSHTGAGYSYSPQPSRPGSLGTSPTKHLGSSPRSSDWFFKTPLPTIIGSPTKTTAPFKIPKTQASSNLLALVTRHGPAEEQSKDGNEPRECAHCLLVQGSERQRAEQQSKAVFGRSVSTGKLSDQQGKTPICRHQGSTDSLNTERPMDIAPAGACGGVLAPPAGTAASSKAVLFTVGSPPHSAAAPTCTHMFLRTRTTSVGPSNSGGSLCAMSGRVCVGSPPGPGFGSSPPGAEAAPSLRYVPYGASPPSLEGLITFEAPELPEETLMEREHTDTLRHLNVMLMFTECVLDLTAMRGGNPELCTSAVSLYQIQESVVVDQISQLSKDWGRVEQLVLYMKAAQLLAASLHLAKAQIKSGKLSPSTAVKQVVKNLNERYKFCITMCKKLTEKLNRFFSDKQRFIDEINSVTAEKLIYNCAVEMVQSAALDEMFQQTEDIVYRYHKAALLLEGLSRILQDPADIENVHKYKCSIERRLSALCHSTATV
# [4] = molecular target: T3, Serine/threonine-protein kinase ULK1 (Homo sapiens) (UniProt O75385); assay: Inhibition of Myc-tagged ULK1 (unknown origin) expressed in HEK293T cells cotransfected with wild-type Flag tagged Beclin-1 assessed as decrease in pBeclin1 Ser15 at 10 uM measured after 1 hr by Western blot analysis relative to control; format: cell-based
# T3 sequence (whole entry): T1 sequence (O75385 whole entry)
# Mus musculus [5] = assay: Decrease in ULK1 level in liver lysate of C57BL/6J mouse at 10 mg/kg, po measured after 2 hrs by Western blot analysis; format: functional, organism-based
# [6] = Half life in C57BL/6J mouse at 30 mg/kg, po measured upto 24 hrs by LC-MS/MS analysis; format: ADME, organism-based; conditions: in vivo
structure (smiles),measurement,setting,value
COc1ccc(Nc2ncc(C(F)(F)F)c(NC3CC3)n2)cc1OC,inhibition,Mus musculus [1],Active
same,IC50,[2],13 nM
same,IC50,[3],1160 nM
same,inhibition,[4],60%
same,inhibition,Mus musculus [5],Active
same,half-life,[6],1.7 h
